{"source": "ChEMBL document CHEMBL5465560", "about": "“Selectivity Literature for EUbOPEN Chemogenomic Library” (2024)", "key": {"[1]": {"biological_target": "High affinity nerve growth factor receptor (Homo sapiens, UniProt P04629)", "experiment": "Selectivity interaction (KinomeScan (DiscoverX)) EUB0000607a NTRK1", "details": "at 10 µM"}, "[2]": {"biological_target": "T1, Serine/threonine-protein kinase Nek11 (Homo sapiens) (UniProt Q8NG66)", "T1 sequence (whole entry)": "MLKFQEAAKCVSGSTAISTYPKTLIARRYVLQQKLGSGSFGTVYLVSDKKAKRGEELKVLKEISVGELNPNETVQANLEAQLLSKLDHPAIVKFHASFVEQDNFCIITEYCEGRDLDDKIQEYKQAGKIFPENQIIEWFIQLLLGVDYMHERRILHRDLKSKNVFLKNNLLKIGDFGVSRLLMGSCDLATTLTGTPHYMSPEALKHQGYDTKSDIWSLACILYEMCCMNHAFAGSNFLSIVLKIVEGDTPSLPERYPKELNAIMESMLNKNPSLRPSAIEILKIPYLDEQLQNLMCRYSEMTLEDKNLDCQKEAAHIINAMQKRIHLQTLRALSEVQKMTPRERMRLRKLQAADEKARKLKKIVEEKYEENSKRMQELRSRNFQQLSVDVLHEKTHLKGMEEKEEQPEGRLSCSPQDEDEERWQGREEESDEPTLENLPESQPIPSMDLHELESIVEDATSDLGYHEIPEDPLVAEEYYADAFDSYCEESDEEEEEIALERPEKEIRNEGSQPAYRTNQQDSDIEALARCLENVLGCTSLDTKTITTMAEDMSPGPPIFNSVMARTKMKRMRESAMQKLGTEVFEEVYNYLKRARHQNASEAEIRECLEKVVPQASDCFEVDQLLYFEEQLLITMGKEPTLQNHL", "experiment": "Selectivity interaction (Upstate Kinase Profiler service (Millipore)) EUB0000056c NEK11", "details": "at 1 µM"}, "[3]": {"biological_target": "Ribosomal protein S6 kinase alpha-4 (Homo sapiens) (UniProt O75676)", "sequence (O75676 whole entry, looked up)": "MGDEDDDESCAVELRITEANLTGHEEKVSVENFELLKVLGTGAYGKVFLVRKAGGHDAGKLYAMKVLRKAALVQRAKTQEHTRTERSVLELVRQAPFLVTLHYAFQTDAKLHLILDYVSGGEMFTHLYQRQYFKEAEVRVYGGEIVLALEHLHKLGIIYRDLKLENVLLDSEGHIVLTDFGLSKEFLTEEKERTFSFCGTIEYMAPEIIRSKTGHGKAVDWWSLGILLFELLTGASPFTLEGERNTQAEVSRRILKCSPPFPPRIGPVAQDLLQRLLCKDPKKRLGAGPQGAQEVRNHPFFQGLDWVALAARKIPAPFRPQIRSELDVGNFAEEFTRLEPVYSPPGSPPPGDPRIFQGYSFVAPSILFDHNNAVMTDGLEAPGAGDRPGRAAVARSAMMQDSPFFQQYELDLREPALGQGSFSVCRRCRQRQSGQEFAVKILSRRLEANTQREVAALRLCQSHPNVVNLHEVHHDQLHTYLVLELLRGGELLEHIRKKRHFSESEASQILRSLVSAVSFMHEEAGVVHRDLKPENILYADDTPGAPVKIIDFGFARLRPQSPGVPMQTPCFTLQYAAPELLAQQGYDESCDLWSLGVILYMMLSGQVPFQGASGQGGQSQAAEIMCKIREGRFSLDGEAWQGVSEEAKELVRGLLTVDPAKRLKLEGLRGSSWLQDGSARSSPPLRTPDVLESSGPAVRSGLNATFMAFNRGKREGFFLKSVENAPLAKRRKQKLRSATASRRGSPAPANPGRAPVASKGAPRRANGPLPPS", "experiment": "Selectivity interaction (ProQinase) EUB0000171b RPS6KA4"}, "[4]": {"biological_target": "Serine/threonine-protein kinase WNK1 (Homo sapiens) (UniProt Q9H4A3)", "sequence (Q9H4A3 whole entry, looked up)": "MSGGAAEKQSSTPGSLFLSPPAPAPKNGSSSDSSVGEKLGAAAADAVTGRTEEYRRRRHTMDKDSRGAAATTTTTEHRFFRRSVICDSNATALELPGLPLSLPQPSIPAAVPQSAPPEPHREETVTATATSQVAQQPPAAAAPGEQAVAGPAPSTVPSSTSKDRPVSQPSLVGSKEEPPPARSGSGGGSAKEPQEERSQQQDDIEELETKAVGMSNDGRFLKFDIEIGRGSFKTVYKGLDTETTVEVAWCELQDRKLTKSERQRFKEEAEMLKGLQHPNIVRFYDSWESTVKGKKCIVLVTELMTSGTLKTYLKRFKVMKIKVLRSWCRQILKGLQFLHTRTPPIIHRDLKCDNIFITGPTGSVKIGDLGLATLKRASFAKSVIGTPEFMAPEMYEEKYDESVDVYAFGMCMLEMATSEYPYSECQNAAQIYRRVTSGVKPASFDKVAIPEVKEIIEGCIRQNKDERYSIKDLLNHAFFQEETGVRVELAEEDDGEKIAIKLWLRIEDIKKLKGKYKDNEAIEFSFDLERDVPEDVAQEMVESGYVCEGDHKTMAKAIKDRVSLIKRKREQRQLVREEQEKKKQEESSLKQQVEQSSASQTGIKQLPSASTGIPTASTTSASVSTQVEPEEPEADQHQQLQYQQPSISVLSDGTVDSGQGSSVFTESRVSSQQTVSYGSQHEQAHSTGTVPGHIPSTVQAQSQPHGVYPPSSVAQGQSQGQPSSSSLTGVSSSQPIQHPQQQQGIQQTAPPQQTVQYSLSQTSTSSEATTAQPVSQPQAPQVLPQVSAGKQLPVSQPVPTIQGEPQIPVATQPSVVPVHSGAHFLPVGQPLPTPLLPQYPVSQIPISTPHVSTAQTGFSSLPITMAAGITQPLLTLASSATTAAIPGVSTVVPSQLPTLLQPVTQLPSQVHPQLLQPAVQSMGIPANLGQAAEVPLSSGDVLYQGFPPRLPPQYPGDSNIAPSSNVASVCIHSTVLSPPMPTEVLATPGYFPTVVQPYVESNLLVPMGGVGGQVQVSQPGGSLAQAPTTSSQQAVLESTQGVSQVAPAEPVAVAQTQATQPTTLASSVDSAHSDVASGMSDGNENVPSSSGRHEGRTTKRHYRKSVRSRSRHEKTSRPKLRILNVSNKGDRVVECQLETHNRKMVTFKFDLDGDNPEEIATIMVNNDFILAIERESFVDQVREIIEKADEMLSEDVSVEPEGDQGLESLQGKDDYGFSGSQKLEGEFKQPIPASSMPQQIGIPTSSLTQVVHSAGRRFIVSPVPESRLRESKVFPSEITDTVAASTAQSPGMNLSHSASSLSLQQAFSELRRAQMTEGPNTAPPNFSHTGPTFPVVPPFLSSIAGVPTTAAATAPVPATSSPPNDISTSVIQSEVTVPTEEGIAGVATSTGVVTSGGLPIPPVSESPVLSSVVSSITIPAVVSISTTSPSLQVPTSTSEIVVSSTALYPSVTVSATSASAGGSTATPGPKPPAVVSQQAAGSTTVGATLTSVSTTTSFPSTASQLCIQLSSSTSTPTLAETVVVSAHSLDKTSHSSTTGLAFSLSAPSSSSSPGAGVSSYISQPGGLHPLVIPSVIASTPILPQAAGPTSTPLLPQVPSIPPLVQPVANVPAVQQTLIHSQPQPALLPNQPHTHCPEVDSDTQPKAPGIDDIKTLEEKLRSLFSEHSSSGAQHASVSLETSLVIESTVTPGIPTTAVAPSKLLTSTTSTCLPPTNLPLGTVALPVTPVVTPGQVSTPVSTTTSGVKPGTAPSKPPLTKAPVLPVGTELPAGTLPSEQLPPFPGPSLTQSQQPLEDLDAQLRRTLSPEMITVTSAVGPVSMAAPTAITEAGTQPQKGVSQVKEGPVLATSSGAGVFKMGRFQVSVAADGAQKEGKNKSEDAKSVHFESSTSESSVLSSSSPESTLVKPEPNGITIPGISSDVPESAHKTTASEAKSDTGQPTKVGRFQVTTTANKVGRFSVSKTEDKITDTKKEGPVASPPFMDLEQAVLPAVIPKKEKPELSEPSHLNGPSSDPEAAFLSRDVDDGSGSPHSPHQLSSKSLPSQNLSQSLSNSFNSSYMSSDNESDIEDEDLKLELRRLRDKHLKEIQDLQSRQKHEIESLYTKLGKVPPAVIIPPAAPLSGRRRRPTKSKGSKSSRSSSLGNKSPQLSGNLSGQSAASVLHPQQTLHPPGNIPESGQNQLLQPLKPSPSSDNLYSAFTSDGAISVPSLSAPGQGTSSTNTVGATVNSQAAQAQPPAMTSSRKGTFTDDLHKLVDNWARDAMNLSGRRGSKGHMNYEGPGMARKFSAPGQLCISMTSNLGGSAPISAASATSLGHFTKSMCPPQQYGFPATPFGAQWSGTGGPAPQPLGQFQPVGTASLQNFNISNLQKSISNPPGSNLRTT", "experiment": "Selectivity interaction (ProQinase) EUB0000171b WNK1"}, "[5]": {"biological_target": "Vascular endothelial growth factor receptor 3 (Homo sapiens, UniProt P35916)", "experiment": "Selectivity interaction (KinomeScan (DiscoverX)) EUB0001049a FLT4", "details": "at 1 µM"}, "[6]": {"biological_target": "Serine/threonine-protein kinase NIM1 (Homo sapiens, UniProt Q8IY84)", "experiment": "Selectivity interaction (KinomeScan (DiscoverX)) EUB0001049a NIM1K", "details": "at 1 µM"}, "[7]": {"biological_target": "Mitogen-activated protein kinase kinase kinase kinase 4 (Homo sapiens, UniProt O95819)", "sequence (O95819 2-1239 limits assumed)": "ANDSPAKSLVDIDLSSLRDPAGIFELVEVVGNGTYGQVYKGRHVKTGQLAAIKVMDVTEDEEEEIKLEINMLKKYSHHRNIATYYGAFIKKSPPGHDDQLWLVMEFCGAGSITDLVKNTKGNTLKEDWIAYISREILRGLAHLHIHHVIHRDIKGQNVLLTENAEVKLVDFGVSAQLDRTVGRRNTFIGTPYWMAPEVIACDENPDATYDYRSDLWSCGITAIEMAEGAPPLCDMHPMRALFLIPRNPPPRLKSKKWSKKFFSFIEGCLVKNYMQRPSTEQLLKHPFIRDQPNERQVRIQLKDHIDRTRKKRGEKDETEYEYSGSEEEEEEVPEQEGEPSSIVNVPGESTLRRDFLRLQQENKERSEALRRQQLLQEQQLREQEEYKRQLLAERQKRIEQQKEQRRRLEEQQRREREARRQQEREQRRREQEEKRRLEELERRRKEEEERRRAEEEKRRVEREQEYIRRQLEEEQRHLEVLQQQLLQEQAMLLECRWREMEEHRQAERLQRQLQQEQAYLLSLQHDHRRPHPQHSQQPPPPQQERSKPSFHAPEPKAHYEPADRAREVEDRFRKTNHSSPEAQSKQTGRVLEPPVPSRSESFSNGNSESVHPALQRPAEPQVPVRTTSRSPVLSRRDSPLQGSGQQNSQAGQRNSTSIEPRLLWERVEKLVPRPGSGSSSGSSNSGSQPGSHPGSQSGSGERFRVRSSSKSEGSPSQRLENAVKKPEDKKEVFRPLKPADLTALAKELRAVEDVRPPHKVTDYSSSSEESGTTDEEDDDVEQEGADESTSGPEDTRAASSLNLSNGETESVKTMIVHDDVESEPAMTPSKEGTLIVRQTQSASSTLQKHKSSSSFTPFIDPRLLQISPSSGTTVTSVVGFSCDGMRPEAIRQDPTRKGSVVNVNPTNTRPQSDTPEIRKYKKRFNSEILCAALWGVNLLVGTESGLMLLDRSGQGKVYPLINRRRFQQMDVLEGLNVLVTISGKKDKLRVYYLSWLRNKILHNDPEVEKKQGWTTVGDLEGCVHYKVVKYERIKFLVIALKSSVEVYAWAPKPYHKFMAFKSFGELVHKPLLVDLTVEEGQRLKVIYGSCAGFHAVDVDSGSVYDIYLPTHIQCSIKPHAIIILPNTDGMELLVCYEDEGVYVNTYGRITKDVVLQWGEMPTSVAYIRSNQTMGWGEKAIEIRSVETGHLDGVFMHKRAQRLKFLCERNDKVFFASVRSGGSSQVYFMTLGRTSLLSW", "experiment": "Selectivity interaction (KinomeScan (DiscoverX)) EUB0001049a MAP4K4", "details": "at 1 µM"}, "[8]": {"biological_target": "T2, Dual specificity tyrosine-phosphorylation-regulated kinase 2 (Homo sapiens) (UniProt Q92630)", "T2 sequence (whole entry)": "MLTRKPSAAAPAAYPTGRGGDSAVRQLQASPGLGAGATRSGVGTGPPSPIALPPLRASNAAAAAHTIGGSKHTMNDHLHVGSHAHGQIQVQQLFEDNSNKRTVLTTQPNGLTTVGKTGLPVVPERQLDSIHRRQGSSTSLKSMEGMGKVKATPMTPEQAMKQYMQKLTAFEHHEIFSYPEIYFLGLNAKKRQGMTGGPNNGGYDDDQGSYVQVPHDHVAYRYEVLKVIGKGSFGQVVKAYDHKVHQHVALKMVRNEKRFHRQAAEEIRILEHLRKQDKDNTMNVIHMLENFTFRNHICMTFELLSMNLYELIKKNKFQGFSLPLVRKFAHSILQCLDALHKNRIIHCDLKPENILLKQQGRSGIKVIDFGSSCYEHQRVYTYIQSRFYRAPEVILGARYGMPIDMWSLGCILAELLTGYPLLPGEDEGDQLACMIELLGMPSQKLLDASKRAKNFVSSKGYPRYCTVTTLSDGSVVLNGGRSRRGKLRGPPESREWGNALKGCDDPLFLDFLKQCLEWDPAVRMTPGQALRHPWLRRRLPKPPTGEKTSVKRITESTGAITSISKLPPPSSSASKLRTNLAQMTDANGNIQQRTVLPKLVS", "experiment": "Selectivity interaction (Kinase screening (Nanosyn)) EUB0000604a DYRK2"}, "[9]": {"biological_target": "MAP/microtubule affinity-regulating kinase 3 (Homo sapiens) (UniProt P27448)", "sequence (P27448 whole entry, looked up)": "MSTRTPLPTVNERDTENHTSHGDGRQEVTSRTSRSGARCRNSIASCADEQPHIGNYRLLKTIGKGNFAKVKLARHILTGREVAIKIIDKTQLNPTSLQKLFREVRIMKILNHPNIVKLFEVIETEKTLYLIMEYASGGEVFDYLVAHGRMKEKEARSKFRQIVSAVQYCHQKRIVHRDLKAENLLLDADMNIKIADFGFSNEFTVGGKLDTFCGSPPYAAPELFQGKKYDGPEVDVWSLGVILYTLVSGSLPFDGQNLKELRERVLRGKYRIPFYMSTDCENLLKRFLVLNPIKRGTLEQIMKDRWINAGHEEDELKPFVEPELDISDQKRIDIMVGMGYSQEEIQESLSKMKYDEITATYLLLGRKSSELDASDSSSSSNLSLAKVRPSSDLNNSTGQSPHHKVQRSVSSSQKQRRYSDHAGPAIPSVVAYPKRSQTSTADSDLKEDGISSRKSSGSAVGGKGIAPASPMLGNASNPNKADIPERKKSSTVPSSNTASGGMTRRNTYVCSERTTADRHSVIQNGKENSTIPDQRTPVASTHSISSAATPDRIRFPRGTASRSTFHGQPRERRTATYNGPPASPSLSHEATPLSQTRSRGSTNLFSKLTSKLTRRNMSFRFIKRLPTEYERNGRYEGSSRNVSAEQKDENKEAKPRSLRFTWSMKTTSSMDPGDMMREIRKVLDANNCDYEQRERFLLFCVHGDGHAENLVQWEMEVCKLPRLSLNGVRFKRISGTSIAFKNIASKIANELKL", "experiment": "Selectivity interaction (Kinase panel (DSF assay)) EUB0001558a MARK3"}, "[10]": {"biological_target": "T3, MAP/microtubule affinity-regulating kinase 4 (Homo sapiens) (UniProt Q96L34)", "T3 sequence (whole entry)": "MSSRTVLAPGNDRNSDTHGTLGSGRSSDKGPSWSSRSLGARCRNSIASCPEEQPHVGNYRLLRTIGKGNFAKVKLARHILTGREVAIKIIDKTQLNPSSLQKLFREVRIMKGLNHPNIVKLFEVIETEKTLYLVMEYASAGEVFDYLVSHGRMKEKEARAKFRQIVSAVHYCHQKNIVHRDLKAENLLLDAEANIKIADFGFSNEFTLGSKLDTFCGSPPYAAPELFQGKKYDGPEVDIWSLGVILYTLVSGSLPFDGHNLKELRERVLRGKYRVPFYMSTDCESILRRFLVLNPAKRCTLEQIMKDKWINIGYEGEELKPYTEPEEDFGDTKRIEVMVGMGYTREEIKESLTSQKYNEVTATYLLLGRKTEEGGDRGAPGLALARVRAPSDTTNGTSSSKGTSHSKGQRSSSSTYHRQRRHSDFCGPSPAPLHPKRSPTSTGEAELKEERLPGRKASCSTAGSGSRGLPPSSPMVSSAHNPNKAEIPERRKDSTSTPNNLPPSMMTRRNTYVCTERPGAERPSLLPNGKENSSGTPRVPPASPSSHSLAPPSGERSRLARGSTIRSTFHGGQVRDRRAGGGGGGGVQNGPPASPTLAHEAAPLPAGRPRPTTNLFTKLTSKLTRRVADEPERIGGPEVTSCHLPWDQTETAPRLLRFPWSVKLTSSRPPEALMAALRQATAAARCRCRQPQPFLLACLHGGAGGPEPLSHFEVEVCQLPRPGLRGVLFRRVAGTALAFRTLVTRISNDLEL", "experiment": "Selectivity interaction (Kinase panel (KiNativ target engagement assay in Jurkat cells)) EUB0001635a MARK4", "type": "cell-based", "details": "Selectivity number of off-targets 0.0, Selectivity number of targets 233.0, Source Knowledge https://www.sciencedirect.com/science/article/pii/S2451945619300674?via%3Dihub, at 1 µM"}, "[11]": {"biological_target": "Receptor tyrosine-protein kinase erbB-4 (Homo sapiens, UniProt Q15303)", "experiment": "Selectivity interaction (KinomeScan (DiscoverX)) EUB0000229b ERBB4", "details": "at 10 µM"}, "[12]": {"biological_target": "Protein-tyrosine kinase 2-beta (Homo sapiens) (UniProt Q14289)", "details": "at 10 µM"}, "[13]": {"biological_target": "Phosphatidylinositol 3-kinase catalytic subunit type 3 (Homo sapiens, UniProt Q8NEB9)", "experiment": "Selectivity interaction (ActivX KiNativ screen (ex vivo kinase selectivity in human PBMCs)) EUB0001619a PIK3C3", "type": "cell-based", "details": "PBMC, at 1 µM"}}}
{"smiles": "CNC(=O)Nc1ccc(-c2nc(N3CC4CCC(C3)O4)c3cnn(C4CCC5(CC4)OCCO5)c3n2)cc1", "values": [{"measurement": "% of control", "setting": "[1]", "value": 100, "unit": "%"}]}
{"smiles": "Cc1ccc(-c2ccc3c(ccc4sc5c(c43)NC[C@@H](C)NC5=O)n2)cn1", "values": [{"measurement": "% of inhibition", "setting": "[2]", "value": -11, "unit": "%"}]}
{"smiles": "C=CC(=O)Nc1cccc(C(=O)Nc2ccc(Nc3cc(-c4[nH]c(SC)nc4C)ccn3)cc2)c1", "values": [{"measurement": "% of control", "setting": "[3]; at 1 µM", "value": 97, "unit": "%"}, {"measurement": "% of control", "setting": "[3]; at 5 µM", "value": 94, "unit": "%"}, {"measurement": "% of control", "setting": "[4]; at 1 µM", "value": 95, "unit": "%"}, {"measurement": "% of control", "setting": "[4]; at 5 µM", "value": 81, "unit": "%"}]}
{"smiles": "COc1cc(Nc2nc(C)cc(-c3cnn4nc(OC)ccc34)n2)cc(C(F)(F)F)c1", "values": [{"measurement": "% of control", "setting": "[5]", "value": 89, "unit": "%"}, {"measurement": "% of control", "setting": "[6]", "value": 94, "unit": "%"}, {"measurement": "% of control", "setting": "[7]", "value": 99, "unit": "%"}]}
{"smiles": "Cc1cnc(Nc2ccc(F)cc2Cl)nc1-c1c[nH]c(C(=O)N[C@H](CO)c2cccc(Cl)c2)c1", "values": [{"measurement": "% of inhibition", "setting": "[8]", "value": 3, "unit": "%"}]}
{"smiles": "CC(C)(O)[C@H](F)CN1Cc2cc(NC(=O)c3cnn4cccnc34)c(N3CCOCC3)cc2C1=O", "values": [{"measurement": "dTM", "setting": "[9]", "value": 1.9, "unit": "K"}]}
{"smiles": "C=CC(=O)Nc1ccc(C(=O)Nc2[nH]nc3c2CN(C(=O)N[C@H](CN(C)C)c2ccccc2)C3(C)C)cc1", "values": [{"measurement": "% of engagement", "setting": "[10]", "value": 37, "unit": "%"}]}
{"smiles": "COc1cc(N(C)c2ccnc3ccc(C(F)(F)F)cc23)cc(OC)c1OC", "values": [{"measurement": "% binding", "setting": "[11]", "value": 81, "unit": "%"}]}
{"smiles": "Cc1cc([C@@H](C)Nc2ccccc2C(=O)O)c2nc(N3CCOCC3)cc(=O)n2c1", "note": "[AZD-6482]", "values": [{"measurement": "% of control", "setting": "[12]", "value": 100, "unit": "%"}]}
{"smiles": "N#Cc1cccc(-c2c[nH]c3ncnc(N4CCOCC4)c23)c1", "values": [{"measurement": "% of inhibition", "setting": "[13]", "value": -17, "unit": "%"}]}
